Experimental data taken from publication PMC8067507, “Aryl Urea Based Scaffolds for Multitarget Drug Discovery in Anticancer Immunotherapies” (Pharmaceuticals, 2021).

Key:
[1] = tested on: A549 (pulmonary adenocarcinoma); experiment: Cell proliferation assay (MTT); format: cell-based; settings: Homo sapiens, A549, 48 h, 2 days incubation, average ± SD of three experiments
Excerpt: (§1) The ability of Ureas 13–33 to inhibit cell proliferation was established by means of their IC50 values towards the human tumor cell lines HT-29 (colon adenocarcinoma), MCF-7 (breast adenocarcinoma), HeLa (epithelioid cervix carcinoma) and A549 (pulmonary adenocarcinoma), as well as towards the endothelial cell line HMEC-1 (human microvascular endothelial cells) and the non-tumor cell line HEK-293 (human embryonic kidney cells).
(§2) HT-29, MCF-7, HeLa, A549 and HEK-293 cell lines were maintained in Dulbecco’s modified Eagle’s medium (DMEM) containing glucose (1 g/L), glutamine (2 mM), penicillin (50 μg/mL), streptomycin (50 μg/mL), and amphotericin B (1.25 μg/mL), supplemented with 10% FBS. HMEC-1 cell line was maintained in Dulbecco’s modified Eagle’s medium (DMEM)/low glucose containing glutamine (2 mM), penicillin (50 μg/mL), streptomycin (50 μg/mL), and amphotericin B (1.25 μg/mL), supplemented with 10% FBS. For the development of tube formation assays in Matrigel, HMEC-1 cells were cultured in EGM-2MV Medium supplemented with EGM-2MV SingleQuots.
(§3) In 96-well plates, 3 × 10^3 (HeLa, A549, HMEC-1, HEK-293) or 5 × 10^3 (HT-29, MCF-7) cells per well were incubated with serial dilutions of the tested compounds in a total volume of 100 μL of their respective growth media. The 3-(4,5-dimethylthiazol-2-yl)-2,5-diphenyltetrazolium bromide (MTT; Sigma Chemical Co.) dye reduction assay in 96-well microplates was used. After 2 days of incubation (37 °C, 5% CO2 in a humid atmosphere), 10 μL of MTT (5 mg/mL in phosphate-buffered saline, PBS) was added to each well, and the plate was incubated for a further 3 h (37 °C). After that, the supernatant was discarded and replaced by 100 µL of DMSO to dissolve formazan crystals. The absorbance was then read at 540 nm by spectrophotometry. For all concentrations of compound, cell viability was expressed as the percentage of the ratio between the mean absorbance of treated cells and the mean absorbance of untreated cells. Three independent experiments were performed, and the IC50 values (i.e., concentration half inhibiting cell proliferation) were graphically determined using GraphPad Prism 4 software.

[2] = tested on: HEK-293 (human embryonic kidney cells); experiment: Cell proliferation assay (MTT); format: cell-based; settings: HEK293, 48 h, 2 days incubation, average ± SD of three experiments
Excerpt: as §1, §2, §3

[3] = tested on: HMEC-1 (human microvascular endothelial cells); experiment: Cell proliferation assay (MTT); format: cell-based; settings: HMEC-1, 48 h, 2 days incubation, average ± SD of three experiments
Excerpt: as §1, §2, §3

[4] = tested on: HT-29 (colon adenocarcinoma); experiment: Cell proliferation assay (MTT); format: cell-based; settings: Homo sapiens, HT-29, 48 h, 2 days incubation, average ± SD of three experiments
Excerpt: as §1, §2, §3

[5] = tested on: HeLa (epithelioid cervix carcinoma); experiment: Cell proliferation assay (MTT); format: cell-based; settings: Homo sapiens, 48 h, 2 days incubation, average ± SD of three experiments
Excerpt: as §1, §2, §3

[6] = tested on: MCF-7 (breast adenocarcinoma); experiment: Cell proliferation assay (MTT); format: cell-based; settings: Homo sapiens, MCF7, 48 h, 2 days incubation, average ± SD of three experiments
Excerpt: as §1, §2, §3

[7] = molecular target: T1, PD-L1 (Homo sapiens, UniProt Q9NZQ7); experiment: PD-L1 quantification by flow cytometry in HT-29; format: cell-based; settings: HT-29, 10 μM, 24 h, referred to control (DMSO)
T1 sequence (Q9NZQ7 19-290): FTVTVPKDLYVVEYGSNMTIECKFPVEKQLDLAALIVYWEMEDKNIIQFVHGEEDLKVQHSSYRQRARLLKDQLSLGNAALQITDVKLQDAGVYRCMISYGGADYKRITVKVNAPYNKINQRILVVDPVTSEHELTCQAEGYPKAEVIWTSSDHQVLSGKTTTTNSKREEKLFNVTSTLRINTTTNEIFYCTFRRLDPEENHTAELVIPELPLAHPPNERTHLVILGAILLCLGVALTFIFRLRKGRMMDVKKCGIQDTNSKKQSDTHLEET
Description: (§4) We evaluated the effect of the selected compounds on PD-L1 and on c-Myc proteins by flow cytometry after 24 h treatment at 10 μM concentration of compounds. Both, PD-L1 and c-Myc were relatively determined using DMSO treated cells as a negative control and BMS-8 as a positive one.
(§5) For the detection of total PD-L1 and c-Myc, cancer cells were seeded (3 × 10^5 cells/well) in 6-well plates and were incubated with the corresponding compounds for 24 h. Then they were collected, fixed, treated with 0.5% Triton^TM X-100 and stained with Alexa Fluor® 647 Rabbit monoclonal Anti-PD-L1 (ab215251) and FITC Rabbit monoclonal anti-c-Myc (ab223913).
(§6) We also checked results performing ELISA tests. For ELISA tests, lysates were collected, protein quantification was carried out by Bradford test and, then, PD-L1 and c-Myc were quantified using Human PD-L1 ELISA Kit 28-8 (ab214565) and c-Myc (Total) Human ELISA Kit (KHO2041), respectively, according to the manufacturer’s instructions.

[8] = tested on: c-Myc; experiment: c-Myc quantification by flow cytometry in HT-29; format: cell-based, human; settings: HT-29, 10 μM, 24 h, referred to control (DMSO)
Description: as §4, §5, §6

[9] = tested on: c-Myc; experiment: c-Myc quantification by flow cytometry in A-549; format: cell-based, human; settings: A-549, 10 μM, 24 h, referred to control (DMSO)
Description: as §4, §5, §6

[10] = molecular target: T1, PD-L1; experiment: PD-L1 quantification by flow cytometry in A-549; format: cell-based; parameters: endogenous in cells; host or cells: A-549 cancer cells; settings: A-549, 10 μM, 24 h, referred to control (DMSO)
Description: as §4, §5, §6

[11] = molecular target: T2, VEGFR-2 (Homo sapiens, UniProt P35968); experiment: VEGFR-2 quantification by flow cytometry in HMEC-1; format: cell-based; parameters: Both membrane and total VEGFR-2 were relatively determined using dimethyl sulfoxide (DMSO) treated cells as a negative control; endogenous in cells; host or cells: HMEC-1 (human microvascular endothelial cells); settings: 10 µM, 24 h, relative to DMSO control
T2 sequence (P35968 20-1356): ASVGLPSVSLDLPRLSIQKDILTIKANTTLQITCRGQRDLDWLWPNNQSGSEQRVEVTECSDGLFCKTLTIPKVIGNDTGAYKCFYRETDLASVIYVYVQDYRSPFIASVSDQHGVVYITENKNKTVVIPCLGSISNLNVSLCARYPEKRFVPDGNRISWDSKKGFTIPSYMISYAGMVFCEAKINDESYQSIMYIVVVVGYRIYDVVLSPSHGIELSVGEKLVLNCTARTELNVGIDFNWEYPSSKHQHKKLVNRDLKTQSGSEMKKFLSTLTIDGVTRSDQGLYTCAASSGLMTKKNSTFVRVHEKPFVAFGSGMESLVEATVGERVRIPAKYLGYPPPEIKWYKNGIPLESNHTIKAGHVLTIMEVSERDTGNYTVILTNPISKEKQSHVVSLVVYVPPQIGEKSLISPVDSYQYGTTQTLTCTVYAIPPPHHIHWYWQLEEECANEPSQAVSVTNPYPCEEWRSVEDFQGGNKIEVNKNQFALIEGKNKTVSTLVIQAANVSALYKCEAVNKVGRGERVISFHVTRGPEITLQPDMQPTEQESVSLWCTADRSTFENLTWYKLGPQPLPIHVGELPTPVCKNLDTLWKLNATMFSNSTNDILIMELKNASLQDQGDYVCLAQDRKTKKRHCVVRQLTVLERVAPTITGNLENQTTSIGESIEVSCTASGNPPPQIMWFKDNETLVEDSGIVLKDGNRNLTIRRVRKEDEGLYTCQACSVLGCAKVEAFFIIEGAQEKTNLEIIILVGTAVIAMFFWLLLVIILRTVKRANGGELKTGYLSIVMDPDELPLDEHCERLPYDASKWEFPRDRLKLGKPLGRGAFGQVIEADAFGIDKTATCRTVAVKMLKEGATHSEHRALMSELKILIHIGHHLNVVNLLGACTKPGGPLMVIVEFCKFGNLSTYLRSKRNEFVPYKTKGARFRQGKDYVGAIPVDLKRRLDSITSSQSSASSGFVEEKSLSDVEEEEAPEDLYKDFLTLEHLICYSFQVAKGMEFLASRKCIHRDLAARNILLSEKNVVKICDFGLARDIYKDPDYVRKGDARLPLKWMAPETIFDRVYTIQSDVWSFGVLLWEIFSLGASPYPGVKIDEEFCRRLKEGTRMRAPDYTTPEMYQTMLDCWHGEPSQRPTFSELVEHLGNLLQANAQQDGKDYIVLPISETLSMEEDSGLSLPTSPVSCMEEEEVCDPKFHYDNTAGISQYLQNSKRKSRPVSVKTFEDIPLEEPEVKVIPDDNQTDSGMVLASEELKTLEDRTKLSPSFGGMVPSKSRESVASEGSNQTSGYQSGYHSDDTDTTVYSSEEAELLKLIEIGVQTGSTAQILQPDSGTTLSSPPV
Description: (§7) We performed the study on both a HT-29 cancer cell line and a human microvessel endothelial cell line (HMEC-1). […] The effect of these selected derivatives on VEGFR-2, on HT-29 tumor cell line and on human microvessel endothelial cells (HMEC) was determined by flow cytometry technique. […] For these assays, cells were incubated for 24 h in the presence of the corresponding compounds at 10 µM concentration.

[12] = molecular target: T2, VEGFR-2; experiment: VEGFR-2 quantification by flow cytometry in HT-29; format: cell-based; parameters: Both membrane and total VEGFR-2 were relatively determined using dimethyl sulfoxide (DMSO) treated cells as a negative control; endogenous in cells; host or cells: HT-29 (colon adenocarcinoma) and HMEC-1 (human microvascular endothelial cells); settings: HT-29, 10 µM, 24 h, relative to DMSO control
Description: as §7

IC50 [1] [µM] | IC50 [4] [µM] | IC50 [5] [µM] | IC50 [6] [µM] | PD-L1 (%) relative expression [7] [%] | PD-L1 (%) relative expression [10] [%] | Membrane VEGFR-2 (%) [11] [%] | Total VEGFR-2 (%) [11] [%] | Membrane VEGFR-2 (%) [12] [%] | Total VEGFR-2 (%) [12] [%] | SMILES | IC50 [2] [µM] | IC50 [3] [µM] | c-Myc (%) relative expression [8] [%] | c-Myc (%) relative expression [9] [%]
34 ± 2 | 24 ± 5 | 32 ± 8 | 30 ± 7 |  |  |  |  |  |  | COc1ccc(/C=C\c2cccc(NC(=O)Nc3ccccc3)c2)cc1 [Compound 13] | 16 ± 3 | 40 ± 5 |  | 
32 ± 14 | 17 ± 2 | 26 ± 3 | 25 ± 10 |  |  |  |  |  |  | COc1ccc(/C=C\c2cccc(NC(=O)Nc3ccccc3Br)c2)cc1 [Compound 14] | 25 ± 3 | 14 ± 2 |  | 
18 ± 1 | 15 ± 1 | 15 ± 2 | 15 ± 1 | 60 ± 12 | 79 ± 9 | 99 ± 7 | 97 ± 9 | 47 ± 16 | 98 ± 12 | COc1ccc(/C=C\c2cccc(NC(=O)Nc3ccccc3OC)c2)cc1 [Compound 17] | 27 ± 5 | 10 ± 1 | 58 ± 13 | 45± 9
23 ± 8 | 17 ± 4 | 24 ± 5 | 19 ± 2 |  |  |  |  |  |  | COc1ccc(/C=C\c2cccc(NC(=O)Nc3cccc(OC)c3)c2)cc1 [Compound 18] | 16 ± 3 | 4.3 ± 0.3 |  | 
12 ± 2 | 14 ± 3 | 5 ± 2 | 8 ± 3 | 36 ± 9 | 98 ± 10 | 98 ± 8 | 99 ± 16 | 88 ± 14 | 97 ± 7 | COc1ccc(/C=C\c2cccc(NC(=O)Nc3ccc(OC)cc3)c2)cc1 [Compound 19] | 10 ± 1 | 11 ± 1 | 47 ± 8 | 79 ± 10
1.6 ± 0.3 | 2.5 ± 0.8 | 42 ± 8 | 2.3 ± 0.9 |  |  |  |  |  |  | COc1ccc(/C=C/c2cccc(NC(=O)Nc3ccccc3)c2)cc1 [Compound 20] | 15 ± 2 | 4 ± 1 |  | 
3 ± 1 | 1.6 ± 0.2 | 1.7 ± 0.4 | 1.6 ± 0.3 |  |  |  |  |  |  | COc1ccc(/C=C/c2cccc(NC(=O)Nc3ccccc3Br)c2)cc1 [Compound 21] | 2 ± 0.2 | 1.9 ± 0.4 |  | 
4 ± 3 | 0.5 ± 0.2 | 1.5 ± 0.3 | 0.6 ± 0.3 |  |  |  |  |  |  | COc1ccc(/C=C/c2cccc(NC(=O)Nc3cccc(Br)c3)c2)cc1 [Compound 22] | 0.7 ± 0.3 | 1.1 ± 0.2 |  | 
11 ± 5 | 11 ± 4 | 9 ± 4 | 3.6 ± 0.6 |  |  |  |  |  |  | COc1ccc(/C=C/c2cccc(NC(=O)Nc3ccccc3OC)c2)cc1 [Compound 24] | 3.5 ± 0.8 | 7.2 ± 0.6 |  | 
2.2 ± 0.7 | 1.3 ± 0.5 | 7 ± 0.5 | 1.1 ± 0.2 | 69 ± 11 | 59 ± 8 | 59 ± 8 | 96 ± 9 | 99 ± 11 | 94 ± 7 | COc1ccc(/C=C/c2cccc(NC(=O)Nc3cccc(OC)c3)c2)cc1 [Compound 25] | 4 ± 2 | 4.3 ± 0.4 | 74 ± 11 | 68 ± 9
12 ± 5 | 9.6 ± 0.6 | 10 ± 2 | 12.8 ± 0.9 |  |  |  |  |  |  | COc1ccc(CCc2cccc(NC(=O)Nc3ccccc3)c2)cc1 [Compound 27] | 12.5 ± 0.2 | 9 ± 4 |  | 
7 ± 4 | 7.9 ± 0.5 | 4 ± 3 | 5 ± 4 |  |  |  |  |  |  | COc1ccc(CCc2cccc(NC(=O)Nc3ccccc3Br)c2)cc1 [Compound 28] | 1.7 ± 0.2 | 5 ± 3 |  | 
13 ± 3 | 11 ± 2 | 10.7 ± 0.5 | 10 ± 4 |  |  |  |  |  |  | COc1ccc(CCc2cccc(NC(=O)Nc3cccc(Br)c3)c2)cc1 [Compound 29] | 7.2 ± 0.4 | 3.8 ± 0.3 |  | 
11 ± 5 | 4.9 ± 0.8 | 3.7 ± 0.3 | 4 ± 2 |  |  |  |  |  |  | COc1ccc(CCc2cccc(NC(=O)Nc3ccc(Br)cc3)c2)cc1 [Compound 30] | 1.3 ± 0.5 | 1.3 ± 0.1 |  | 
24 ± 5 | 57 ± 6 | 24 ± 2 | 10 ± 5 |  |  |  |  |  |  | COc1ccc(CCc2cccc(NC(=O)Nc3ccccc3OC)c2)cc1 [Compound 31] | 13.8 ± 0.8 | > 100 |  | 
18 ± 3 | 22 ± 2 | 27 ± 1 | 25 ± 4 | 55 ± 11 | 59 ± 9 | 69 ± 8 | 98 ± 13 | 76 ± 5 | 93 ± 10 | COc1ccc(CCc2cccc(NC(=O)Nc3cccc(OC)c3)c2)cc1 [Compound 32] | 9.7 ± 0.8 | 7.1 ± 0.8 | 69 ± 7 | 77 ± 15
